Consider eight compounds from patent US3974140A, “Ureidoacetamido-penicillins” (Bayer Aktiengesellschaft, priority 1970, dated 1976).

Common to all, as to assay: MIC, liquid medium test tube series dilution test
For one assay, the system named is Staph. aureus 133. Type of assay: cell-based, Staphylococcus aureus. To be noted: Staph. aureus 133, 24 hours, 37°C. The essentials:
(§1)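 Broth tube serial dilution in complete nutrient medium; tubes read after 24 hours' incubation at 37°C. MIC taken as the concentration in the non-turbid tube of the dilution series, expressed in units/ml.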

Another assay has as its system Staph. aureus 1777 E. The assay is classed as cell-based, Staphylococcus aureus. To be noted: 24 hours, 37°C. A digest of the protocol:
as §1

For a further assay, the system named is Psdm. aerug. Walter. The assay is classed as cell-based, Pseudomonas aerug. The following applies: 24 hours, 37°C. The essentials:
as §1

A further assay deals with Psdm. aerug. Bonn. The assay is classed as cell-based, Pseudomonas aerug. The following applies: 24 hours, 37°C. The essentials: as §1
The test system of assay [1] is Streptoc. faec. ATCC 9790. Type of assay: cell-based. The following applies: Strep. faec. (Enterococcus) ATCC 9790, 24 hours, 37°C. A digest of the protocol: as §1
The next assay has as its system E. coli C 165. Type of assay: cell-based. To be noted: E. coli C 165, 24 hours, 37°C. A digest of the protocol: as §1
Another assay has as its system E. coli A 261. Type of assay: cell-based. The following applies: E. coli A 261, 24 hours, 37°C. A digest of the protocol: as §1
In another assay the test system is E. coli 14. The assay is classed as cell-based. To be noted: E. coli 14, 24 hours, 37°C. The essentials:
as §1

Another assay has as its system Klebsiella K 10. Type of assay: cell-based. The following applies: Klebsiella K 10, 24 hours, 37°C. A digest of the protocol: as §1
The next assay has as its system Klebsiella 63. The assay is classed as cell-based. To be noted: Klebsiella 63, 24 hours, 37°C. The essentials: as §1
The subject of another assay is E. coli 183/58. Type of assay: cell-based. The following applies: E. coli 183/58, 24 hours, 37°C. A digest of the protocol:
as §1

A further assay concerns Proteus vulg. 1017. Type of assay: cell-based, Proteus vulgaris. The following applies: Proteus vulg. 1017, 24 hours, 37°C. The essentials: as §1
Another assay concerns Proteus vulg. 3400. The assay is classed as cell-based, Proteus vulgaris. The following applies: Proteus vulg. 3400, 24 hours, 37°C. The essentials: as §1

Take `CCN(CC)C(=O)N(C)C(=O)N[C@@H](C(=O)N[C@@H]1C(=O)N2[C@@H]1SC(C)(C)[C@@H]2C(=O)O)c1ccccc1` [Example 126, Sodium D(-)-α-(3-diethylaminocarbonyl-3-methyl-ureido)-benzylpenicillin]: the MIC against Staph. aureus 133 is 1.56 units/ml; in the assay with Staph. aureus 1777 E, 100 units/ml; with Psdm. aerug. Walter, 200 units/ml; in the assay with Psdm. aerug. Bonn, 100 units/ml; in assay [1] it was 200 units/ml; against E. coli C 165, 50 units/ml. Also, the MIC against E. coli A 261 is more than 400 units/ml; in the assay with E. coli 14, 12.5 units/ml; against Klebsiella K 10, 100 units/ml; in the assay with Klebsiella 63 it was 200 units/ml; in the assay with E. coli 183/58 it was 50 units/ml; with Proteus vulg. 1017 it was 100 units/ml. The same compound registered an MIC in the assay with Proteus vulg. 3400 of 100 units/ml.
In the case of `CN(C(=O)N[C@@H](C(=O)N[C@@H]1C(=O)N2[C@@H]1SC(C)(C)[C@@H]2C(=O)O)c1ccccc1)C(=O)c1ccc(Cl)cc1[N+](=O)[O-]` [Example 127, Sodium D(-)-α-(3-[2-nitro-4-chlorobenzoyl]-3-methyl-ureido)-benzylpenicillin], the MIC is on record as less than 0.78 units/ml in the assay on Staph. aureus 133; 12.5 units/ml in the assay with Staph. aureus 1777 E; 25 units/ml against Psdm. aerug. Walter; 12.5 units/ml against Psdm. aerug. Bonn; 25 units/ml in assay [1]; 3.12 units/ml with E. coli C 165. For the same compound, the MIC came out at 50 units/ml in the assay on E. coli A 261; 0.78 units/ml with E. coli 14; 12.5 units/ml in the assay with Klebsiella K 10; 12.5 units/ml in the assay on Klebsiella 63; 1.56 units/ml in the assay on E. coli 183/58; 3.12 units/ml against Proteus vulg. 1017. Moreover, the MIC against Proteus vulg. 3400 was found to be 6.25 units/ml.
Consider `CN(C(=O)N[C@@H](C(=O)N[C@@H]1C(=O)N2[C@@H]1SC(C)(C)[C@@H]2C(=O)O)c1ccccc1)C(=O)c1ccccc1Br` [Example 128, Sodium D(-)-α-(3-[2-bromobenzoyl]-3-methyl-ureido)-benzyl penicillin], for which the MIC is on record as less than 0.78 units/ml with Staph. aureus 133; 12.5 units/ml in the assay with Staph. aureus 1777 E; 12.5 units/ml in the assay with Psdm. aerug. Walter; 6.25 units/ml against Psdm. aerug. Bonn; 50 units/ml in assay [1]; 1.56 units/ml in the assay with E. coli C 165. The MIC was 50 units/ml against E. coli A 261; 0.78 units/ml against E. coli 14; 6.25 units/ml with Klebsiella K 10; 6.25 units/ml against Klebsiella 63; less than 0.78 units/ml in the assay on E. coli 183/58; 1.56 units/ml in the assay with Proteus vulg. 1017. Further, the MIC with Proteus vulg. 3400 amounted to 6.25 units/ml.
For the compound `Cc1ccccc1C(=O)N(C)C(=O)N[C@@H](C(=O)N[C@@H]1C(=O)N2[C@@H]1SC(C)(C)[C@@H]2C(=O)O)c1ccccc1` [Example 129, Sodium D(-)-α-(3-[2-methylbenzoyl]-3-methyl-ureido)-benzylpenicillin], the MIC in the assay on Staph. aureus 133 is less than 0.78 units/ml; in the assay with Staph. aureus 1777 E it was 6.25 units/ml; in the assay on Psdm. aerug. Walter it was 12.5 units/ml; in the assay on Psdm. aerug. Bonn it was 6.25 units/ml; in assay [1], 50 units/ml; in the assay on E. coli C 165 it was 1.56 units/ml. The MIC in the assay on E. coli A 261 was 50 units/ml; in the assay with E. coli 14, 0.78 units/ml; against Klebsiella K 10, 6.25 units/ml; against Klebsiella 63, 6.25 units/ml; in the assay on E. coli 183/58 it was 1.56 units/ml; with Proteus vulg. 1017, 3.12 units/ml. Besides, the MIC in the assay on Proteus vulg. 3400 amounted to 6.25 units/ml.
For the compound `CN(C(=O)C=Cc1cccc([N+](=O)[O-])c1)C(=O)N[C@@H](C(=O)N[C@@H]1C(=O)N2[C@@H]1SC(C)(C)[C@@H]2C(=O)O)c1ccccc1` [Example 131, Sodium D(-)-α-(3-m-nitrocinnamoyl-3-methyl-ureido)-benzylpenicillin], the MIC against Staph. aureus 133 was less than 0.8 units/ml; in the assay on Staph. aureus 1777 E, 20-100 units/ml; in the assay with Psdm. aerug. Walter, 0.8-4 units/ml; in the assay with Psdm. aerug. Bonn, 0.8-4 units/ml; in assay [1], 4-20 units/ml; with E. coli C 165 it was less than 0.8 units/ml. Also, the MIC in the assay on E. coli A 261 is given as 20-100 units/ml; in the assay on E. coli 14, 0.8 units/ml; in the assay with Klebsiella K 10, 0.8-4 units/ml; in the assay on Klebsiella 63, 4-20 units/ml; against E. coli 183/58, less than 0.8 units/ml; in the assay on Proteus vulg. 1017, 0.8-4 units/ml. The MIC in the assay with Proteus vulg. 3400 was 0.8-4 units/ml.
For `CN(C(=O)Cc1ccc([N+](=O)[O-])cc1)C(=O)N[C@@H](C(=O)N[C@@H]1C(=O)N2[C@@H]1SC(C)(C)[C@@H]2C(=O)O)c1ccccc1` [Example 132, Sodium D(-)-α-(3-[4-nitrophenacetyl]-3-methyl-ureido)-benzylpenicillin], the MIC is less than 0.8 units/ml against Staph. aureus 133; 20-100 units/ml in the assay with Staph. aureus 1777 E; 4-20 units/ml in the assay with Psdm. aerug. Walter; 4-20 units/ml in the assay with Psdm. aerug. Bonn; 4-20 units/ml in [1]; 0.8-4 units/ml against E. coli C 165. Moreover, the MIC is on record as more than 400 units/ml against E. coli A 261; 0.8 units/ml with E. coli 14; 4-20 units/ml against Klebsiella K 10; 20-100 units/ml against Klebsiella 63; less than 0.8 units/ml against E. coli 183/58; 4-20 units/ml with Proteus vulg. 1017. Besides, the MIC against Proteus vulg. 3400 was 0.8-4 units/ml.
In the case of `CC1(C)S[C@@H]2[C@H](NC(=O)[C@H](NC(=O)N3CCCCC3=O)c3ccccc3)C(=O)N2[C@H]1C(=O)O` [Example 134, Sodium D(-)-α-(1-piperidin-2-on-1-yl-carbonylamino)-benzylpenicillin], the MIC is recorded as 3.1 units/ml against Staph. aureus 133; 200 units/ml against Staph. aureus 1777 E; 50 units/ml against Psdm. aerug. Walter; 100 units/ml against Psdm. aerug. Bonn; 100 units/ml in assay [1]; 25 units/ml against E. coli C 165. Further, the MIC with E. coli A 261 is listed as more than 400 units/ml; against E. coli 14, 3.1 units/ml; against Klebsiella K 10 it was 50 units/ml; in the assay on Klebsiella 63 it was 200 units/ml; with E. coli 183/58, 25 units/ml; with Proteus vulg. 1017 it was 12.5 units/ml. Also, the MIC against Proteus vulg. 3400 is 50 units/ml.
With `CN(C(=O)NC(C(=O)N[C@@H]1C(=O)N2[C@@H]1SC(C)(C)[C@@H]2C(=O)O)c1cccs1)C(=O)c1ccccc1Cl` (stereo partly drawn) [Example 135, Sodium α-(3-o-chlorobenzoyl-3-methyl-ureido)-α-thienyl(2)-methylpenicillin], the MIC against Staph. aureus 133 was less than 0.8 units/ml; against Staph. aureus 1777 E, 100 units/ml; in the assay on Psdm. aerug. Walter, 100 units/ml; against Psdm. aerug. Bonn, 400 units/ml; in assay [1], 200 units/ml; with E. coli C 165, 50 units/ml. Also, the MIC against E. coli A 261 was determined as 400 units/ml; in the assay with E. coli 14, 12.5 units/ml; against Klebsiella K 10 it was 100 units/ml; in the assay with Klebsiella 63 it was 400 units/ml; against E. coli 183/58 it was 25 units/ml; in the assay with Proteus vulg. 1017 it was 25 units/ml. The compound also had an MIC in the assay with Proteus vulg. 3400 of 100 units/ml.
